# Measurements published in ChEMBL document CHEMBL1125853, “An acyliminium ion route to and Anti phe-gly dipeptide mimetics” (Bioorg Med Chem Lett, 1991).
# Biological target: Angiotensin-converting enzyme (Homo sapiens, UniProt P12821)
# Assay: Inhibitory constant angiotensin converting enzyme
# Sequence of Angiotensin-converting enzyme (P12821 whole entry): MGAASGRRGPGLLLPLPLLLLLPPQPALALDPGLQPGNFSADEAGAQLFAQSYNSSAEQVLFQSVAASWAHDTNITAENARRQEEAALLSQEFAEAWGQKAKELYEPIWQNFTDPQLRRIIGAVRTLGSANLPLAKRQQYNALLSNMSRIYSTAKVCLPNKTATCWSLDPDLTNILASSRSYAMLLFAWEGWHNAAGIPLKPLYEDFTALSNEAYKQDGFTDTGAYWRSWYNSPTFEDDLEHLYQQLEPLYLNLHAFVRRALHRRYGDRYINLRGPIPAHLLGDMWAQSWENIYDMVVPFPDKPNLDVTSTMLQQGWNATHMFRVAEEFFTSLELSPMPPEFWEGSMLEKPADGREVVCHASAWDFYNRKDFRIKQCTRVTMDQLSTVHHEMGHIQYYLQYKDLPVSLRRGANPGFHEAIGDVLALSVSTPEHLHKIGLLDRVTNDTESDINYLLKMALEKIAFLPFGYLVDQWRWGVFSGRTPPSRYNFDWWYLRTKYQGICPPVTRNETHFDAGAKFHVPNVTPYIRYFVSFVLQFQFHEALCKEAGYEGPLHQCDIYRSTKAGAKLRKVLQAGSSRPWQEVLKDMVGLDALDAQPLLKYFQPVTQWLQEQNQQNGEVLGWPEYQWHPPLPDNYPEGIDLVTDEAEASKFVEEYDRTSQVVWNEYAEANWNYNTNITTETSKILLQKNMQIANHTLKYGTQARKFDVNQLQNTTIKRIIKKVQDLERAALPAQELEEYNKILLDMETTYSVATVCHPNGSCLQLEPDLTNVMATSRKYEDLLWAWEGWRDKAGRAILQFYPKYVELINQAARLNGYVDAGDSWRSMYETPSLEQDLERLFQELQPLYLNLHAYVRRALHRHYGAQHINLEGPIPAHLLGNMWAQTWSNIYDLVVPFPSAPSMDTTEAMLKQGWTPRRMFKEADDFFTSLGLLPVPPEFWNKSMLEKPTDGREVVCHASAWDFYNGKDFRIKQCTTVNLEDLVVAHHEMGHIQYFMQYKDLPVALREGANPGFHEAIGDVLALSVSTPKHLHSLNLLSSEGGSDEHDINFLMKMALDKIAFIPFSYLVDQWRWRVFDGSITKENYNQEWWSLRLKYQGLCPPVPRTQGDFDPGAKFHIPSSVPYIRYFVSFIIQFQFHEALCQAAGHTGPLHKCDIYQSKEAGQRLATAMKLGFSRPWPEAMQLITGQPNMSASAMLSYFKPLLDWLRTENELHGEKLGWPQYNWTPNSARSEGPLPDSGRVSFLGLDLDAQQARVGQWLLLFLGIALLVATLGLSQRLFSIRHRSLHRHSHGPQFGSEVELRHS
compound,measurement,value
O=C(O)CN1Cc2ccccc2CC(N[C@H](CCc2ccccc2)C(=O)O)C1=O (stereo partly specified),Ki,10 nM
